Assay results published in the supplement of paper PMC10307832.

Experiments:
Test in all cases: relative viability (nuclei count vs DMSO), 5 days (fraction); higher = more cells survive
[1] = compound: C1CCC(CC1)N(CCNCCC2=C3C(=C(C=C2)O)NC(=O)CO3)C(=O)CCNCCC4=CC(=C(C=C4)Cl)Cl [AZ505] + CC(=O)c1c(C)c2cnc(Nc3ccc(N4CCNCC4)cn3)nc2n(C2CCCC2)c1=O [Palbociclib] (partner 0.5 µM)
Summary of the method: (§1)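 Values are medians from duplicate plates. Each reflects relative viability, defined as the nuclei count of treated wells over that of vehicle wells. Lung cancer cell lines in 1536-well plates were pin-tool dosed one day after seeding with one drug alone or with a fixed anchor-drug dose plus five library-drug doses (not always all listed) in √10 steps, then fixed, stained and imaged at 4× after 5 days.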

[2] = compound: C1CCC(CC1)N(CCNCCC2=C3C(=C(C=C2)O)NC(=O)CO3)C(=O)CCNCCC4=CC(=C(C=C4)Cl)Cl [AZ505] + CC1(C)CCC(c2ccc(Cl)cc2)=C(CN2CCN(c3ccc(C(=O)NS(=O)(=O)c4ccc(N[C@H](CCN5CCOCC5)CSc5ccccc5)c(S(=O)(=O)C(F)(F)F)c4)cc3)CC2)C1 [Navitoclax] (partner 0.5 µM)
Summary of the method: as §1

[3] = compound: Cn1c(=O)n(-c2ccc(C(C)(C)C#N)cc2)c2c3cc(-c4cnc5ccccc5c4)ccc3ncc21 [Dactolisib] + C[C@]1(O)C[C@@H](c2nc(-c3ccc4ccc(-c5ccccc5)nc4c3)c3c(N)nccn32)C1 [Linsitinib] (partner 1 µM)
Summary of the method: as §1

[4] = compound: Cn1c(=O)n(-c2ccc(C(C)(C)C#N)cc2)c2c3cc(-c4cnc5ccccc5c4)ccc3ncc21 [Dactolisib] + C[C@@H](Oc1cc(-c2cnn(C3CCNCC3)c2)cnc1N)c1c(Cl)ccc(F)c1Cl [Crizotinib] (partner 1 µM)
Summary of the method: as §1

Cell Line	relative viability ([1]; first compound 0.08 µM)	relative viability ([1]; first compound 0.253 µM)	relative viability ([1]; first compound 0.8 µM)	relative viability ([1]; first compound 2.53 µM)	relative viability ([1]; first compound 8 µM)	relative viability ([2]; first compound 0.08 µM)	relative viability ([2]; first compound 0.253 µM)	relative viability ([2]; first compound 0.8 µM)	relative viability ([2]; first compound 2.53 µM)	relative viability ([2]; first compound 8 µM)	relative viability ([3]; first compound 0.002 µM)	relative viability ([3]; first compound 0.006325 µM)	relative viability ([3]; first compound 0.02 µM)	relative viability ([3]; first compound 0.06325 µM)	relative viability ([3]; first compound 0.2 µM)	relative viability ([4]; first compound 0.002 µM)	relative viability ([4]; first compound 0.006325 µM)	relative viability ([4]; first compound 0.02 µM)	relative viability ([4]; first compound 0.06325 µM)	relative viability ([4]; first compound 0.2 µM)
NCI-H1651	0.512	0.517	0.502	0.498	0.523	1.06	1.07	1.03	1.12	1.01	1.03	0.743	0.714	0.321	0.293	0.861	0.891	0.777	0.679	0.57
NCI-H1666	0.625	0.648	0.621	0.72	0.601	0.969	1.06	0.99	0.896	0.894	0.939	0.865	0.776	0.506	0.42	1.22	0.884	0.876	0.637	0.436
NCI-H1734	0.351	0.373	0.324	0.411	0.338	0.802	0.836	0.755	0.736	0.774	1.02	0.755	0.72	0.336	0.318	0.634	0.578	0.454	0.333	0.164
NCI-H1755	0.42	0.46	0.434	0.441	0.442	0.949	1.06	0.967	1.01	0.971	0.983	0.971	0.989	0.763	0.622	0.931	0.802	0.823	0.596	0.438
NCI-H1792	0.642		0.619	0.612	0.696	0.61	0.637	0.592	0.653	0.719	0.57	0.483	0.382	0.112	0.0865	1.15	0.971	0.921	0.601	0.294
NCI-H1915	0.528	0.528	0.478	0.44	0.473	0.749	0.781	0.733	0.783	0.763	1.11	1.13	1.11	0.901	0.631	0.889	0.903	0.916	0.713	0.529
NCI-H1944	0.346	0.325	0.339	0.3	0.308	1.03	1.03	1.03	0.907	1.02	1.36	1.17	1.06	0.524	0.428	1.18	1.06	1.03	0.46	0.392
NCI-H1975	0.531	0.473	0.505	0.621	0.564	1.02	0.99	1.05	1.03	1.13	1.01	0.847	0.551	0.32	0.256	1.18	0.948	0.7	0.358	0.34
